Laboratory results taken from ChEMBL document CHEMBL1122946, “Folate antagonists. 21. Synthesis and antimalarial properties of 2,4-diamino-6-(benzylamino)pyrido[3,2-d]pyrimidines” (1985).

Columns and labels:
Mus musculus [1] = experiment: Mean survival time against trophozoite induced Plasmodium berghei in mice minus control was evaluated at a dose 1.25 mg/kg; format: functional
Mus musculus [2] = experiment: Mean survival time against trophozoite induced Plasmodium berghei in mice minus control was evaluated at a dose 160 mg/kg; 8 toxic death occurred out of 10 animals on days 2-5 after injection; format: functional, organism-based; set-up: dose 160 mg/kg
Mus musculus [3] = experiment: Mean survival time against trophozoite induced Plasmodium berghei in mice minus control was evaluated at a dose 20 mg/kg;3 survived out of 15 animals at 60 days postinjection; format: functional, organism-based; set-up: dose 20 mg/kg
Mus musculus [4] = experiment: Mean survival time against trophozoite induced Plasmodium berghei in mice minus control was evaluated at a dose 5 mg/kg.; format: functional
Mus musculus [5] = experiment: Mean survival time against trophozoite induced Plasmodium berghei in mice minus control was evaluated at a dose 10 mg/kg; format: functional
Mus musculus [6] = experiment: Mean survival time against trophozoite induced Plasmodium berghei in mice minus control was evaluated at a dose 320 mg/kg; 8 toxic death occurred out f 10 animals on days 2-5 after injection; format: functional, organism-based; set-up: dose 320 mg/kg
Mus musculus [7] = experiment: Mean survival time against trophozoite induced Plasmodium berghei in mice minus control was evaluated at a dose 640 mg/kg; 5 toxic death occurred out of 5 animals on days 2-5 after injection; format: functional, organism-based; set-up: dose 640 mg/kg
Mus musculus [8] = experiment: Mean survival time against trophozoite induced Plasmodium berghei in mice minus control was evaluated at a dose 40 mg/kg; 11 survived out of 15 animals at 60 days postinjection; format: functional, organism-based; set-up: dose 40 mg/kg
Mus musculus [9] = experiment: Mean survival time against trophozoite induced Plasmodium berghei in mice minus control was evaluated at a dose 80 mg/kg; 4 toxic death occurred out of 10 animals on days 2-5 after injection.; format: functional, organism-based; set-up: dose 80 mg/kg
Mus musculus [10] = experiment: Mean survival time against trophozoite induced Plasmodium berghei in mice minus control was evaluated at a dose 2.5 mg/kg.; format: functional
Mus musculus [11] = experiment: Mean survival time against trophozoite induced Plasmodium berghei in mice minus control was evaluated at a dose 80 mg/kg; 5 survived out of 5 animals at 60 days postinjection.; format: functional, organism-based; set-up: dose 80 mg/kg
Mus musculus [12] = experiment: Mean survival time against trophozoite induced Plasmodium berghei in mice minus control was evaluated at a dose 320 mg/kg; 10 toxic death occurred out of 10 animals on days 2-5 after injection; format: functional, organism-based; set-up: dose 320 mg/kg
Mus musculus [13] = experiment: Mean survival time against trophozoite induced Plasmodium berghei in mice minus control was evaluated at a dose 40 mg/kg; format: functional
Mus musculus [14] = experiment: Mean survival time against trophozoite induced Plasmodium berghei in mice minus control was evaluated at a dose 640 mg/kg; 15 toxic death occurred out of 15 animals on days 2-5 after injection; format: functional, organism-based; set-up: dose 640 mg/kg
Mus musculus [15] = experiment: Mean survival time against trophozoite induced Plasmodium berghei in mice minus control was evaluated at a dose 10 mg/kg.; format: functional
Mus musculus [16] = experiment: Mean survival time against trophozoite induced Plasmodium berghei in mice minus control was evaluated at a dose 1.25 mg/kg.; format: functional
Mus musculus [17] = experiment: Mean survival time against trophozoite induced Plasmodium berghei in mice minus control was evaluated at a dose 160 mg/kg; 14 toxic death occurred out of 20 animals on days 2-5 after injection; format: functional, organism-based; set-up: dose 160 mg/kg
Mus musculus [18] = experiment: Mean survival time against trophozoite induced Plasmodium berghei in mice minus control was evaluated at a dose 20 mg/kg; format: functional

Compound: CC#N.CC(C)N(Cc1ccc(Cl)cc1)c1ccc2nc(N)nc(N)c2n1
- Delta MST (Mus musculus [1]): 3.5 days
- Delta MST (Mus musculus [2]): Toxic Deaths 8/10
- Delta MST (Mus musculus [3]): Survivals 3/15
- Delta MST (Mus musculus [4]): 8.5 days
- Delta MST (Mus musculus [5]): 11.5 days
- Delta MST (Mus musculus [6]): Toxic Deaths 8/10
- Delta MST (Mus musculus [7]): Toxic Deaths 5/5
- Delta MST (Mus musculus [8]): Survivals 11/15
- Delta MST (Mus musculus [9]): Toxic Deaths 4/10
- Delta MST (Mus musculus [10]): 6.5 days

Compound: CCCN(Cc1ccc(Cl)cc1)c1ccc2nc(N)nc(N)c2n1
- Delta MST (Mus musculus [11]): Survivals 5/5
- Delta MST (Mus musculus [12]): Toxic Deaths 10/10
- Delta MST (Mus musculus [13]): 21.3 days
- Delta MST (Mus musculus [14]): Toxic Deaths 15/15
- Delta MST (Mus musculus [4]): 8.9 days
- Delta MST (Mus musculus [15]): 10.3 days
- Delta MST (Mus musculus [16]): 6.9 days
- Delta MST (Mus musculus [10]): 8.1 days
- Delta MST (Mus musculus [17]): Toxic Deaths 14/20
- Delta MST (Mus musculus [18]): 18 days
